Structures can show the parent of a compound that is named as a salt. Where two headings read alike, the source gives them in different places.
System: PRKACA-PRKAR2A interaction (SmBiT-PRKACA / LgBiT-PRKAR2A), protein kinase A
Parameters: NanoLuc complementation counter-screen in cell extract, PRKACA with PRKAR2A, loss of luminescence, detects NanoLuc interference
Settings: 0.5 h, 20 µM, inhibitor
[1] = counter-screen for NanoLuc interference
[2] = counter-screen for NanoLuc interference, Inh (PKA)

Structure (SMILES) | Inh (PKA) [1] [%] | other results
C=C[C@@H]1C[C@]1(NC(=O)[C@@H]1C[C@@H](Oc2ncc(OC)c3ccc(Cl)cc23)CN1C(=O)[C@@H](NC(=O)OC(C)(C)C)C(C)(C)C)C(=O)NS(=O)(=O)C1CC1 [UM0141521:01, Asunaprevir (BMS-650032)] | -7.752 | –
C=CC(=O)Nc1cccc(Nc2nc(Nc3ccc(OCCOC)cc3)ncc2F)c1 [UM0141522:01, AVL-292] | 22.87 | –
COc1cc([C@@H]2c3cc4c(cc3[C@H](O)[C@H]3COC(=O)[C@@H]23)OCO4)cc(OC)c1OC [UM0141523:01, AXL1717] | 8.722 | –
C[C@@H]1COCCN1c1cc(C2(S(C)(=O)=O)CC2)nc(-c2cccc3[nH]ccc23)n1 [UM0141524:01, AZ20] | 9.96 | –
CCN(CCCOc1ccc2c(Nc3cc(CC(=O)Nc4cccc(F)c4)[nH]n3)ncnc2c1)CCOP(=O)(O)O [UM0141525:01, AZD1152] | 8.114 | –
COC(=O)[C@]12CCC(C)(C)C[C@H]1[C@H]1C(=O)C=C3[C@@]4(C)C=C(C#N)C(=O)C(C)(C)[C@@H]4CC[C@@]3(C)[C@]1(C)CC2 [UM0141526:01, Bardoxolone methyl] | 12.18 | –
CNCc1ccc(C)c(NC(=O)c2ccc(Nc3nc(-c4ccccc4)c4ccccc4n3)cc2)c1 [UM0141527:01, BMS-833923] | 45.75 | –
C=CC(=O)Nc1cc(-n2c(=O)ccc3cnc4ccc(-c5ccc(NS(C)(=O)=O)cc5)cc4c32)ccc1C [UM0141528:01, BMX-IN-1] | 6.521 | –
CC(C)(C)NC(=O)N[C@H](C(=O)N1C[C@H]2[C@@H]([C@H]1C(=O)NC(CC1CCC1)C(=O)C(N)=O)C2(C)C)C(C)(C)C (stereo partly shown) [UM0141529:01, Boceprevir] | 1.202 | –
Cc1c(NC(=O)c2ccc(C(C)(C)C)cc2)cccc1-c1cn(C)c(=O)c(Nc2ccc(C(=O)N3CCOCC3)cc2)n1 [UM0141530:01, CGI-1746] | 10.06 | –
C[C@@H](O)[C@H](NC(=O)c1ccc(C#Cc2ccc(CN3CCOCC3)cc2)cc1)C(=O)NO [UM0141531:01, CHIR-090] | 2.568 | –
C=CC(=O)Nc1cccc(Nc2nc(Nc3ccc(N4CCN(C(C)=O)CC4)cc3OC)ncc2C(F)(F)F)c1 [UM0141532:01, CO-1686 (AVL-301)] | 17.5 | –
O=C(c1ccc(F)c(F)c1Nc1ccc(I)cc1F)N1CC(O)([C@@H]2CCCCN2)C1 [UM0141533:01, Cobimetinib] | 6.124 | –
C=C1C(=O)O[C@@H]2/C=C(\C)CC/C=C(\C)CC[C@@H]12 [UM0141534:01, Costunolide] | 4.671 | –
COc1cc(/C=C/C(=O)CC(=O)/C=C/c2ccc(O)c(OC)c2)ccc1O [UM0141535:01, Curcumin] | 70.09 | –
CN1CCCN(C(=O)c2cccc(-c3ccc(/C=C4/C(=O)Nc5ccc(Cl)cc54)o3)c2)CC1 [UM0141536:01, CX-6258] | 48.23 | –
CC(C)(C)NS(=O)(=O)c1cncc(-c2cc(F)c3nc(N)nn3c2)c1 [UM0141537:01, CZC24832] | 2.566 | –
S=C(S)O[C@@H]1C[C@@H]2C[C@@H]1[C@H]1CCC[C@@H]21 [UM0141538:01, D609] | 17.68 | –
CCCCCCOC(=O)NC(=N)c1ccc(NCc2nc3cc(C(=O)N(CCC(=O)OCC)c4ccccn4)ccc3n2C)cc1 [UM0141539:01, Dabigatran etexilate mesylate] | – | Inh (PKA) [2]: 7.702%
CC(C)(C)c1nc(-c2cccc(NS(=O)(=O)c3c(F)cccc3F)c2F)c(-c2ccnc(N)n2)s1 [UM0141540:01, Dabrafenib Mesylate (GSK-2118436)] | – | Inh (PKA) [2]: 39.79%

Structure (SMILES) | Inh (PKA) [1] [%] | other results
CCN(CC)CCN(Cc1ccc(-c2ccc(C(F)(F)F)cc2)cc1)C(=O)Cn1c(SCc2ccc(F)cc2)nc(=O)c2c1CCC2 [UM0141541:01, Darapladib] | 8.505 | –
NC(=O)c1ccccc1Nc1ccnc(Nc2cccc(O)c2)n1 [UM0141542:01, DB07268] | 39.9 | –
CC(=O)O[C@@]12CO[C@@H]1C[C@H](O)[C@@]1(C)C(=O)[C@H](O)C3=C(C)[C@@H](OC(=O)[C@H](O)[C@@H](NC(=O)OC(C)(C)C)c4ccccc4)C[C@@](O)([C@@H](OC(=O)c4ccccc4)[C@H]21)C3(C)C [UM0141543:01, Docetaxel Trihydrate] | – | Inh (PKA) [2]: 1.786%
CCCCc1oc2ccc(NS(C)(=O)=O)cc2c1C(=O)c1ccc(OCCCN(CCCC)CCCC)cc1 [UM0141544:01, Dronedarone] | 6.648 | –
CN1CCc2nc(C(=O)N[C@@H]3C[C@@H](C(=O)N(C)C)CC[C@@H]3NC(=O)C(=O)Nc3ccc(Cl)cn3)sc2C1 [UM0141545:01, Edoxaban] | – | Inh (PKA) [2]: 0.988%
CN1CCc2nc(C(=O)N[C@@H]3C[C@@H](C(=O)N(C)C)CC[C@@H]3NC(=O)C(=O)Nc3ccc(Cl)cn3)sc2C1 [UM0141546:01, Edoxaban tosylate monohydrate] | – | Inh (PKA) [2]: 2.853%
COc1cc2c(cc1OC)CN(CCc1ccc(NC(=O)c3cccc4c(=O)c5cccc(OC)c5[nH]c34)cc1)CC2 [UM0141547:01, Elacridar] | 22.37 | –
CN1CCC(COc2cnc(-c3cccc(Cn4nc(-c5cccc(C#N)c5)ccc4=O)c3)nc2)CC1 [UM0141548:01, EMD-1214063] | 7.378 | –
CCc1c(C(=O)NNC(=O)C(O)c2cc(F)cc(F)c2)ccc(O)c1C (stereo not shown) [UM0141549:01, EMD638683] | 19.67 | –
Cc1ccc(-c2ncc(Cl)cc2-c2ccc(S(C)(=O)=O)cc2)cn1 [UM0141550:01, Etoricoxib] | 2.792 | –
Cc1cc([N+](=O)[O-])ccc1NS(=O)(=O)c1cc(Cl)ccc1Cl [UM0141551:01, FH535] | 77.24 | –
CC(C)n1c(/C=C/[C@H](O)C[C@H](O)CC(=O)O)c(-c2ccc(F)cc2)c2ccccc21 [UM0141552:01, Fluvastatin] | 9.856 | –
COc1ccc2c3c1O[C@H]1C[C@@H](O)C=C[C@@]31CCN(C)C2 [UM0141554:01, Galanthamine] | – | Inh (PKA) [2]: 0.2093%
CC(C)=CCC[C@]1(C)C=Cc2c(O)c3c(c(CC=C(C)C)c2O1)O[C@]12C(=C[C@@H]4C[C@H]1C(C)(C)O[C@@]2(C/C=C(/C)C(=O)O)C4=O)C3=O [UM0141555:01, Gambogic Acid] | 4.588 | –
CS(=O)(=O)N1CCN(Cc2cc3nc(-c4cccc5[nH]ncc45)nc(N4CCOCC4)c3s2)CC1 [UM0141556:01, GDC-0941 dimethanesulfonate] | – | Inh (PKA) [2]: 7.081%
CC[C@H](C)n1cc(C)c2c(C(=O)NCc3c(C)cc(C)[nH]c3=O)cc(-c3ccc(N4CCNCC4)nc3)cc21 [UM0141557:01, GSK126] | 5.02 | –
Cn1cc(-c2ccc3c(c2)CCN3C(=O)Cc2cccc(C(F)(F)F)c2)c2c(N)ncnc21 [UM0141558:01, GSK2606414] | 15.1 | –
CCCc1cc(C)[nH]c(=O)c1CNC(=O)c1cc(-c2ccnc(N3CCN(C)CC3)c2)cc2c1cnn2C(C)C [UM0141559:01, GSK343] | 8.178 | –
N=C(N)NC(=O)Cc1c(Cl)cccc1Cl [UM0141560:01, Guanfacine hydrochloride] | 4.541 | –
O=S(=O)(c1cccc2c(O)nccc12)N1CCCNCC1 [UM0141561:01, Hydroxyfasudil hydrochloride] | 27.19 | –

Structure (SMILES) | Inh (PKA) [1] [%] | other results
O[C@@H](c1cc(C(F)(F)F)nc2c(C(F)(F)F)cccc12)[C@H]1CCCCN1 [UM0141561:02, Mefloquine hydrochloride] | 15.66 | –
CCCCS(=O)(=O)N[C@@H](Cc1ccc(OCCCCC2CCNCC2)cc1)C(=O)O [UM0141561:03, Tirofiban hydrochloride monohydrate] | 1.888 | –
N#Cc1ccc2[nH]cc(CCCCN3CCN(c4ccc5oc(C(N)=O)cc5c4)CC3)c2c1 [UM0141561:04, Vilazodone Hydrochloride] | 10.91 | –
COC(=O)[C@@H](N)CCCNC(=N)N[N+](=O)[O-] [UM0141561:05, L-NAME hydrochloride] | -1.626 | –
COc1cc2c3cc1Oc1c(OC)c(OC)cc4c1[C@@H](Cc1cccc(c1)Oc1ccc(c(O)c1)C[C@@H]3N(C)CC2)N(C)CC4 [UM0141561:06, Berbamine hydrochloride] | – | Inh (PKA): 0.4662%
NS(=O)(=O)NCCNc1nonc1C(=Nc1ccc(F)c(Br)c1)NO [UM0141562:01, IDO inhibitor 1] | 11.46 | –
NS(=O)(=O)NCCNc1nonc1/C(=N/O)Nc1ccc(F)c(Br)c1 [UM0141562:02, INCB-024360] | 8.041 | –
COc1cc(N2CCOCC2)ccc1NC(=O)c1csc(-c2cccnc2)n1 [UM0141564:01, IRAK inhibitor 6] | 6.368 | –
Cc1ccc2nc(NC(=O)CSc3nc4c(c(=O)n3-c3ccccc3)SCC4)sc2c1 [UM0141565:01, IWP-2] | 27.82 | –
C/C(=C\c1csc(C)n1)[C@@H]1C[C@@H]2O[C@]2(C)CCC[C@H](C)[C@H](O)[C@@H](C)C(=O)C(C)(C)[C@@H](O)CC(=O)N1 [UM0141566:01, Ixabepilone] | 1.607 | –
COc1cc2ncnc(Nc3ccc(O)cc3)c2cc1OC [UM0141567:01, JANEX-1] | 3.268 | –
Cc1cc(NC(=O)c2cccc(NC(=O)/C=C/CN(C)C)c2)ccc1Nc1nccc(-c2cccnc2)n1 [UM0141569:01, JNK-IN-8] | 12.62 | –
O=C1NCCSc2c1sc1ccc(O)cc21 [UM0141570:01, kb NB 142-70] | 9.964 | –
N=C(N)SCCc1ccc(OCc2ccc([N+](=O)[O-])cc2)cc1 [UM0141571:01, KB-R7943 mesylate] | 7.839 | –
COc1cc(Oc2ccnc3cc(OC)c(OC)cc23)ccc1NC(=O)NC(C)c1nccs1 (stereo not shown) [UM0141572:01, Ki20227] | 11.8 | –
COc1ccc(S(=O)(=O)Nc2ccccc2CN(C)C/C=C/c2ccc(Cl)cc2)cc1 [UM0141573:01, KN-92 phosphate] | 16.02 | –
COc1ccc(S(=O)(=O)N(CCO)c2ccccc2CN(C)C/C=C/c2ccc(Cl)cc2)cc1 [UM0141574:01, KN-93] | – | Inh (PKA) [2]: 44.92%
O=C(Cc1ccc(-c2ccc(OCCN3CCOCC3)cc2)cn1)NCc1ccccc1 [UM0141575:01, KX2-391 dihydrochloride] | – | Inh (PKA) [2]: 3.66%
